According to publication PMC6539809, “Development of Oxygen-Bridged Pyrazole-Based Structures as Cannabinoid Receptor 1 Ligands” (Molecules, 2019):

Assays:
[1] = molecular target: T1, CB1Rs of mouse vas deferens (Mus musculus, UniProt P47746); experiment: Isolated organ assay: electrically evoked contractions of mouse vas deferens; details: for Kb: read-out: Antagonist potency pA2 (converted)
T1 construct: naturally expressed prejunctional neuronal CB1Rs; from tissue; host or cells: isolated vas deferens of male albino CD1 mice
T1 sequence (P47746 whole entry): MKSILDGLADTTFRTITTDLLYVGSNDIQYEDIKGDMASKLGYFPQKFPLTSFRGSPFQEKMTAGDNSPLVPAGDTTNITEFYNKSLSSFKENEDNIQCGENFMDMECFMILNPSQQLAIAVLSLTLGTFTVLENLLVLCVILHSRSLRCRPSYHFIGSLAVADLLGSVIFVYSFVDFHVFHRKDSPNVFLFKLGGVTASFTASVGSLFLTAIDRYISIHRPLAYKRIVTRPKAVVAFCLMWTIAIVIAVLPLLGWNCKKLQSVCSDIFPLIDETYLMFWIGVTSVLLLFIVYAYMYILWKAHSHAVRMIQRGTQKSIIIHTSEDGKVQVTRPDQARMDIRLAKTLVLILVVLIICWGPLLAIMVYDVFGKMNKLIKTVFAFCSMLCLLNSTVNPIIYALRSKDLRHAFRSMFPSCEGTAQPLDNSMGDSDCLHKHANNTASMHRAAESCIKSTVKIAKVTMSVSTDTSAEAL
Protocol: Vas deferens was obtained from male albino CD1 mice weighing 30 to 40 g. Tissue was mounted in a 10 mL organ bath at an initial tension of 0.5 g using a previously described method [16]. The bath contained Krebs-Henseleit solution (118.2 mM NaCl, 4.75 mM KCl, 1.19 mM KH2PO4, 25.0 mM NaHCO3, 11.0 mM glucose, and 2.54 mM CaCl2), which was kept at 37 °C and bubbled with 95% O2 and 5% CO2. Isometric contractions were evoked by stimulation with 0.5 sec trains of three pulses of 110% maximal voltage (train frequency, 0.1 Hz; pulse duration, 0.5 msec) through platinum electrodes attached to the upper end of each bath and a stainless-steel electrode attached to the lower end. Stimuli were generated using a Grass S88K stimulator and then amplified (multiplexing pulse booster 316S; Ugo Basile, Comerio, Italy) and divided to yield separate outputs to four organ baths. Contractions were monitored using a computer equipped with a data recording and analysis system (PowerLab 400) linked via preamplifiers (QuadBridge) to an F10 transducer (Biological Instruments, Besozzo, Italy). Each tissue was subject to several periods of stimulation. […] The stimulator was then switched off for 15 min, after which the tissues were subjected to further periods of stimulation each lasting 5 min and separated by a stimulation-free period. The compounds to be assayed were added once the contractile responses to electrical stimulation were reproducible. Preparations were exposed to cumulative increasing concentrations of the compounds to obtain concentration-response curves in the case of CB1 agonist (and partial agonist) compounds. […] Inhibition of the electrically evoked twitch response was expressed in percentage terms and was calculated by comparing the amplitude of the twitch response after each addition of the agonist compound (alone or in the presence of a potential CB1 antagonist) with the amplitude detected in absence of the compounds to be assayed (basal value). The pA2 values for competitive antagonism were calculated by Schild regression analysis [37]. Data were plotted as log antagonist concentration versus log [(antagonist concentration/agonist concentration)-1].

obese mice = tested on: obese mice; set-up: method as in PMID 23756200; details: chronic treatment of obese mice; cited from earlier work
CB2 receptor = molecular target: T2, CB2 receptor (Mus musculus, UniProt P47936); details: [3H]-CP-55,940, mouse spleen homogenate; lead compound; read-out: KiCB2; cited from earlier work
T2 construct: from tissue; host or cells: mouse (CD1) spleen, membrane homogenate
T2 sequence (P47936 whole entry): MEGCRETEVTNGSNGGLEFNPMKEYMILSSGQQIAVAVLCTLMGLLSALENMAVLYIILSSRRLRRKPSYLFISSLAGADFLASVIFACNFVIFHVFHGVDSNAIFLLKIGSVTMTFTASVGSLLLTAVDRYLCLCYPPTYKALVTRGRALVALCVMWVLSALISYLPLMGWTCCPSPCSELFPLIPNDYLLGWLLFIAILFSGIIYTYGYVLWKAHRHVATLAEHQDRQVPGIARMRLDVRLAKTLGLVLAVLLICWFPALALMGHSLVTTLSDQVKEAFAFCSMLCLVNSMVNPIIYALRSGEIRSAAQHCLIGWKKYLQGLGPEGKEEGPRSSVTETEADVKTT

[2] = set-up: method as in PMID 23756200; details: cited from earlier work
CB1 receptor = molecular target: T3, CB1 receptor (Mus musculus, UniProt P47746); details: [3H]-CP 55,940, mouse brain (minus cerebellum) homogenate; lead compound; read-out: KiCB1; cited from earlier work
T3 construct: from tissue; host or cells: mouse (CD1) brain minus cerebellum, membrane homogenate
T3 sequence (P47746 whole entry): as the sequence (P47746 whole entry) above

C57Bl6/J mice = experiment: Acute food intake in fasted mice; type: in vivo, mouse; details: for Food intake effect over time: 10 mg/kg i.p., at 2 h and 3 h; for Activity on food intake compared to rimonabant: dose of 10 mg/kg i.p.
Protocol: To further evaluate the potential application of these CB1 antagonists in the control of food intake and in obesity treatment, compound 1b was preliminarily tested in comparison with SR141716A in an acute in vivo assay using C57Bl6/J mice. The evaluation was carried out according to the animal model previously reported by Di Marzo [19].
It is well known that CB1Rs mediate the hyperphagic effect of cannabinoids. […] To test the potential anti-obesity effect of the new CB1 antagonist 1b we performed food intake experiments according to the acute animal model described by Di Marzo [19]. For a comparison we also reported the results concerning the assumed lead compound of this new series, derivative 1a.
A widely described method was used for the screening of the new CB1 antagonists in the food intake animal model. C57Bl6/J mice weighing 20–25 g were housed individually on a reverse light-dark cycle in a room with temperature and humidity control. The mice were fasted for 18 h before testing. Vehicle or CB1 antagonists were administered by an intraperitoneal injection and 15 min later a known amount of food was presented. Food pellets were weighed after each hour for three hours. Rimonabant was used as internal positive control in order to evaluate the efficacy of each compound. All animal experiments were performed according to the UE (CEE N° 86/609) guidelines for the care and use of experimental animals.
Two-way ANOVA with Bonferroni post-testing was performed using GraphPad Prism version 5.00 for Windows (GraphPad Software, San Diego CA, USA).

CD1 mice = experiment: Gastrointestinal transit (GIT), carmine marker; type: in vivo, mouse
Excerpt: The mouse isolated vas deferens is a nerve-smooth muscle preparation that serves as a highly sensitive and quantitative functional in vitro bioassay for cannabinoid CB1R agonists. The effect of CB1 agonists is related to the action on naturally expressed prejunctional neuronal CB1Rs to inhibit release of the contractile neurotransmitters, noradrenaline and ATP, which is provoked by electrical stimulation. It has been shown that CB1 antagonist derivatives are able to block or reduce the inhibition of the electrically evoked contraction amplitude of the vas deferens induced by CB1 agonists, with parallel dextral shifts in CB1R agonist log concentration-response curves in electrically stimulated tissues. According to previous studies concerning cannabinoid agents, a gastrointestinal transit test was adopted to confirm CB1 antagonism. […] Moreover, the capability of CB1 antagonist compounds both to block the constipation effect induced by cannabinoid agonists and to themselves increase themselves gastrointestinal motility has been reported.
The same procedure previously reported by Murineddu et al. was adopted to evaluate the effect of the compounds on GIT. CD1 mice weighing 30–35 g were used. Carmine (Sigma Chemical Co, St. Louis, MO, USA) was suspended (6% wt/v) in distilled water containing 0.5% methylcellulose and administered by gavage at the dose of 0.3 mL/mouse. Briefly, after 20 min from carmine administration, mice were sacrificed by cervical dislocation and the stomach and small intestine were removed and the omentum was separated, avoiding stretching. The length of the intestine was measured starting from the pyloric sphincter to the ileocecal junction. The distance travelled by the head of the marker was measured and expressed as a percent of the total length of the small intestine. Using this procedure, the marker was consistently found at approximately 50% of the small intestine, 20 min after its administration to naive mice.
20 min later, mice were killed by dislocation cervical and intestines were removed. […] The length of the intestine from the pyloric sphincter to the ileocecal junction and the distance travelled by the carmine front were both measured and recorded. Groups of n = 10 mice were used in each experiment.
Statistical analyses were performed by one-way ANOVA followed by Newman-Keuls post-hoc comparison.

[3] = tested on: ventral tegmental area (VTA) dopamine neurons projecting to the NAc shell; set-up: method as in PMID 27521837; details: i.v. administration of high doses; cited from earlier work
rats = tested on: rats; set-up: method as in PMID 27521837; details: i.p. dose of 0.125 mg/kg; cited from earlier work
[4] = tested on: P-ERK 1/2 expression in mouse neuroblastoma N1E-115 cells (CB1Rs); experiment: P-ERK 1/2 expression in N1E-115 cells (Western blot); type: cell-based; details: 5 min pre-treatment with compound (150–200 nM; 1b 200 nM), then WIN 55,212-2 25 nM for 10 min
Protocol: Agonist or antagonist activity of the new derivatives towards CB1Rs were assayed through in vitro testing based on the determination of phosphorylated ERK 1/2 (P-ERK 1/2) expression in a mouse neuroblastoma N1E-115 cell line. As previously reported, this cell line expresses CB1Rs but not CB2Rs; moreover, it has been shown that the exposure of N1E-115 cells to the cannabinoid agonists arachidonyl-2-chloroethylamide (ACEA) and WIN 55-212,2 induces a rapid phosphorylation and activation of the ERK 1/2. The addition of CB1 antagonists as SR141716A abolishes the response induced by the cannabinoid agonists.
N1E-115 cells were grown at 37 °C in humidified 5% CO2 in Dulbecco’s Modified Eagle’s Medium (high glucose supplemented with 10% fetal bovine serum (FBS), 1 μg/mL penicillin-streptomycin, 2 mM L-glutamine, 2.5 μg/mL amphotericin B and 50 μg/mL gentamicin). […] Tested and reference compounds were dissolved in Dulbecco’s phosphate buffered saline (D-PBS) with 1% DMSO and treatments were performed in a volume of 10 μL/mL of cell suspension.
P-ERK 1/2 expression was determined through Western blot analysis according to the previously reported procedure. One-way ANOVA was performed as a statistical analysis using the Graph Pad Prism program (San Diego, CA, USA).
The same procedure was adopted to determine CB1 specific antagonism for compounds which had no effect on P-ERK 1/2 expression themselves. In these last cases, WIN55,212-2 at 25 nM as a reference cannabinoid agonist agent and the new CB1 antagonists at 150–200 nM were employed.

Compound	Kb [1] [nM]	Food intake and body weight on chronic treatment (obese mice)	Ki (CB2 receptor) [nM]	Blood-brain barrier (BBB) permeability [2]	Ki (CB1 receptor) [nM]	Food intake effect over time (C57Bl6/J mice)	Activity on food intake compared to rimonabant (C57Bl6/J mice)	Increase in gastrointestinal transit in comparison to vehicle-treated mice (CD1 mice; 0.5–1.0 mg/kg i.p.)	Effect on GIT in combination with WIN 55,212-2 (CD1 mice; WIN 55,212-2 0.5 mg/kg i.p.)	Effect on the WIN-55,212-2 action on VTA dopamine neuron activity [3]	Change of electrically-evoked contractions versus basal response, compound alone ([1]; up to a concentration of 10^−6 M, 30 min incubation)	Food intake and body weight (rats)	Counteraction of the WIN 55,212-2-induced increase of P-ERK 1/2 expression [4]	Observable side effects / behavioural effects (C57Bl6/J mice; 20 mg/kg (highest assayed dosage))	Food intake compared to vehicle (C57Bl6/J mice; starting from a dose of 3 mg/kg i.p., fasted mice)
O=C(NN1CCCCC1)c1nn(-c2ccc(Cl)cc2Cl)c2c1CCOc1cc(Cl)ccc1-2 [Compound 1a, 8-chloro-1-(2,4-dichlorophenyl)-N-piperidin-1-yl-4,5-dihydrobenzo-1H-6-oxa-cyclohepta[1,2-c]pyrazole-3-carboxamide]	7.94	reduction of food intake and body weight	> 5000	poor	10.3 ± 0.41	still markedly decreased food intake	Significant increments of the activity								
O=C(NC1CCCCC1)c1nn(-c2ccc(Cl)cc2Cl)c2c1CCOc1cc(Cl)ccc1-2 [Compound 1b]	0.794		3725 ± 25		40 ± 7	still markedly decreased food intake	Significant increments of the activity	65–70%	significantly blocked	reverted the effect of the agonist WIN-55,212-2	No agonist activity	reduced both food intake and body weight	CB1 antagonist activity	absence of observable side effects	significantly reduced food intake
